Test results as given in article PMC10610545, “Preclinical Evaluation of an Imidazole-Linked Heterocycle for Alzheimer’s Disease” (Pharmaceutics, 2023).

System: 5XFAD mice
Assay: Object location test (OLT) in 5XFAD mice
Format: in vivo, mouse
Conditions: 2 mg/Kg in drinking water, 4 weeks, vs 5XFAD Control
Method: Four-month-old female and male Wt and 5XFAD mice (n = 32) were used to carry out cognitive and molecular analyses. […] The animals had free access to food and water and were kept under standard temperature conditions (22 ± 2 °C) and 12 h/12 h light/dark cycles (300 lx/0 lx). […] After 4 weeks of treatment, cognitive tests, including short- and long-term memory and OLT, were performed to study the effects of treatment on learning and memory. Weight and water consumption were controlled each week, and the LSL33 concentration was adjusted accordingly to reach the optimal dose until euthanasia.
The OLT evaluated the spontaneous tendency of rodents to spend more time exploring a novel object location than a familiar object location and recognizing when an object has been relocated. OLT was performed using a white plywood apparatus (50 × 50 × 25 cm), in which three walls were white and one was black. On the first day, animals were just habituated to the empty open-field arena for 10 min. On the second day, two objects were placed in front of the black wall, equidistant from each other and the wall. The objects were 10 cm high and identical. […] Trials were recorded using a camera mounted above the open field area, and the total exploration time was determined by scoring TN and TO. DI was calculated, defined as (TN−TO)/(TN+TO). […]

Cl.c1ccc2sc(-c3ncc[nH]3)cc2c1 [LSL33, 2-(Benzo[b]thiophene-2-yl)-1H-imidazole hydrochloride]
OLT discrimination index (DI): increase in the discrimination index (DI)
